Results from patent US10344019B2 (priority 2010, dated 2019).
Like-named read-outs stand apart in the source and are kept apart here.

Assays:
Assay in all cases: microbe, parasite or virus in culture
Format in all cases: cell-based
[1] = tested on: HCV 1a RLuc cells (dicistronic genotype 1a H77 replicon, RLuc reporter); details: Hepatitis C virus, read-out: 1a
Summary of the method: (§1)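 Replicon cells stably carrying the listed RLuc-encoding dicistronic replicons were seeded and treated with DMSO serial dilutions of compound (10 mM stocks) diluted into culture medium. After 72 h, cells were lysed and Renilla luciferase activity measured. EC50 was derived by non-linear regression.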

[2] = tested on: HCV 3a RLuc cells (NS5A chimeric genotype 1b Con1 replicon with consensus genotype 3a NS5A gene); details: Hepatitis C virus
Summary of the method: as §1

[3] = tested on: HCV 4a Rluc cells (NS5A chimeric genotype 1b Con1 replicon with genotype 4a NS5A gene); details: Hepatitis C virus, read-out: 4a
Summary of the method: as §1

[4] = tested on: HCV 1b RLuc cells (dicistronic genotype 1b Con1 replicon, RLuc reporter); details: Hepatitis C virus, read-out: 1b (nM)
Summary of the method: as §1

[5] = tested on: HCV 2a JFH-1 Rluc cells (dicistronic genotype 2a JFH-1 replicon, RLuc reporter); details: Hepatitis C virus, genotype 2a JFH-1 replicon, read-out: 2a JFH
Summary of the method: as §1

[6] = genotype 1a H77 replicon, RLuc reporter
[7] = read-out: 3a, genotype 3a NS5A chimeric 1b Con1 replicon
[8] = 72 h, Table 2, genotype 1a H77 replicon, 72 hours
[9] = read-out: 3a, Table 2, genotype 3a NS5A chimeric replicon
[10] = read-out: 3a, genotype 3a replicon

COC(=O)N[C@H](C(=O)N1CCC[C@H]1c1nc2c([nH]1)COc1cc(-c3ccc4cc(-c5c[nH]c([C@@H]6CCCN6C(=O)[C@@H](c6ccccc6)N(C)C)n5)ccc4c3)ccc1-2)C(C)C [Example 177] was tested, and the EC50 [1, 6] was 0.001 to 0.999 nM, the EC50 [2, 7] was 0.001 to 0.99 nM and the EC50 [3] was 0.001 to 0.99 nM. The EC50 [4] was 0.01 nM and the EC50 ([5]; RLuc reporter) was 0.001 to 0.999 nM.
COC(=O)N[C@H](C(=O)N1CCC[C@H]1c1nc2ccc3cc(C#Cc4ccc(-c5cnc([C@@H]6CCCN6C(=O)[C@H](NC(=O)OC)c6ccccc6)[nH]5)cc4)ccc3c2[nH]1)C(C)C [Example 238] gave an EC50 [1, 6] of 0.001 to 0.999 nM, an EC50 [2, 7] of 0.001 to 0.99 nM and an EC50 [3] of 0.001 to 0.99 nM. It also gave an EC50 [4] of 0.005 nM and an EC50 ([5]; RLuc reporter) of 0.001 to 0.999 nM.
Work on COC(=O)N[C@H](C(=O)N1CCC[C@H]1c1ncc(-c2ccc3c(c2)CCc2cc(-c4ccc5nc([C@@H]6[C@H]7CC[C@H](C7)N6C(=O)[C@H](NC(=O)OC)c6ccccc6)[nH]c5c4)ccc2-3)[nH]1)C1CCOCC1 [Example 78] yielded an EC50 [1, 8] of 0.001 to 0.999 nM, an EC50 [2, 9] of 0.001 to 0.99 nM and an EC50 [3] of 0.001 to 0.99 nM. The EC50 ([4]; 72 h) was 0.013 nM and the EC50 ([5]; 72 h, Table 2, 72 hours) was 0.001 to 0.999 nM.
For COC(=O)N[C@H](C(=O)N1CCC[C@H]1c1ncc(-c2cc3c4c(c2)CCc2cc(-c5cnc([C@@H]6CCCN6C(=O)[C@@H](NC(=O)OC)[C@H](C)OC)[nH]5)cc(c2-4)CC3)[nH]1)C(C)C [Example 25], the EC50 ([1]; 72 h, Table 1, genotype 1a H77 replicon, 72 hours) was 0.001 to 0.999 nM, the EC50 ([2]; read-out: 3a, Table 1, genotype 3a NS5A chimeric replicon) was 0.001 to 0.99 nM and the EC50 [3] was 0.001 to 0.99 nM. It also gave an EC50 ([4]; 72 h) of 0.021 nM and an EC50 ([5]; 72 h, Table 1, 72 hours) of 0.001 to 0.999 nM.
For COC(=O)N[C@H](C(=O)N1CCC[C@H]1c1ncc(-c2ccc3c(c2)CCc2cc(-c4ccc5nc([C@@H]6[C@H]7CC[C@H](C7)N6C(=O)[C@@H](NC(=O)OC)C6CCOCC6)[nH]c5c4)ccc2-3)[nH]1)C1CCOCC1 [Example 77], the EC50 [1, 8] was 0.001 to 0.999 nM, the EC50 [2, 9] was 0.001 to 0.99 nM and the EC50 [3] was 0.001 to 0.99 nM. It also gave an EC50 ([4]; 72 h) of 0.029 nM and an EC50 ([5]; 72 h, Table 2, 72 hours) of 0.001 to 0.999 nM.
Work on COC(=O)N[C@H](C(=O)N1CCC[C@H]1c1nc2ccc3cc(-c4ccc5c(c4)CCc4nc([C@@H]6[C@H]7CC[C@H](C7)N6C(=O)[C@@H](NC(=O)OC)[C@@H](C)OC)[nH]c4-5)ccc3c2[nH]1)C(C)C [Example 88] yielded an EC50 [1, 8] of 0.001 to 0.999 nM, an EC50 [2, 9] of 0.001 to 0.99 nM and an EC50 [3] of 0.001 to 0.99 nM. The EC50 ([4]; 72 h) was 0.019 nM and the EC50 ([5]; 72 h, Table 2, 72 hours) was 0.001 to 0.999 nM.
In the case of CCC(CC)[C@H](NC(=O)OC)C(=O)N1CCC[C@H]1c1ncc(-c2ccc3cc(-c4ccc(-c5cnc([C@@H]6CCCN6C(=O)[C@H](NC(=O)OC)c6ccccc6)[nH]5)cc4)ccc3c2)[nH]1 [Example 286], the EC50 [1, 6] is reported as 0.001 to 0.999 nM, the EC50 [2, 7] is reported as 0.001 to 0.99 nM and the EC50 [3] is reported as 0.001 to 0.99 nM. It also gave an EC50 [4] of 0.003 nM and an EC50 ([5]; RLuc reporter) of 0.001 to 0.999 nM.
In the case of COC(=O)NC(C(=O)N1CCC[C@H]1c1ncc(-c2ccc3cc(-c4ccc5c(c4)CCc4nc([C@@H]6CCCN6C(=O)[C@@H](NC(=O)OC)C(C)C)[nH]c4-5)ccc3c2)[nH]1)c1cnccn1 (stereo partly shown) [Example 231], the EC50 [1, 6] is reported as 0.001 to 0.999 nM, the EC50 [2, 7] is reported as 1 to 4.99 nM and the EC50 [3] is reported as 0.001 to 0.99 nM. It also gave an EC50 [4] of 0.019 nM and an EC50 ([5]; RLuc reporter) of 1 to 44 nM.
COC(=O)N[C@H](C(=O)N1CCC[C@H]1c1ncc(-c2ccc3cc(-c4ccc(-c5cnc([C@@H]6CCCN6C(=O)[C@@H](NC(=O)OC)[C@@H](C)OC)[nH]5)cc4)ccc3c2)[nH]1)C(C)C [Example 240] was tested, and the EC50 [1, 6] was 0.001 to 0.999 nM, the EC50 [2, 7] was 1 to 4.99 nM and the EC50 [3] was 0.001 to 0.99 nM. It also gave an EC50 [4] of 0.01 nM and an EC50 ([5]; RLuc reporter) of 0.001 to 0.999 nM.
COC(=O)N[C@H](C(=O)N1CCC[C@H]1c1ncc(-c2ccc3c(c2)OCc2cc(-c4ccc5nc([C@@H]6[C@H]7CC[C@H](C7)N6C(=O)[C@@H](c6ccccc6)N(N)C(=O)OC)[nH]c5c4)ccc2-3)[nH]1)C(C)C [Example 74] showed an EC50 [1, 8] of 0.001 to 0.999 nM, an EC50 [2, 9] of 0.001 to 0.99 nM and an EC50 [3] of 0.001 to 0.99 nM. The EC50 ([4]; 72 h) was 0.006 nM and the EC50 ([5]; 72 h, Table 2, 72 hours) was 0.001 to 0.999 nM.
With COC(=O)N[C@H](C(=O)N1[C@@H]2CC[C@@H](C2)[C@H]1c1ncc(-c2ccc3cc(-c4ccc5c(ccc6nc([C@@H]7CCCN7C(=O)[C@H](NC(=O)OC)c7ccccc7)[nH]c65)c4)ccc3c2)[nH]1)C1CCOCC1 [Example 101] the EC50 [1, 8] was 0.001 to 0.999 nM, the EC50 [2, 9] was 0.001 to 0.99 nM and the EC50 [3] was 0.001 to 0.99 nM. The EC50 ([4]; 72 h) was 0.011 nM and the EC50 ([5]; 72 h, Table 2, 72 hours) was 0.001 to 0.999 nM.
Molecule COC(=O)N[C@H](C(=O)N1CCC[C@H]1c1nc2ccc(-c3ccc4c(c3)CCc3cc(-c5cnc([C@@H]6CCCN6C(=O)C(c6ccccc6)N(C)C)[nH]5)ccc3-4)cc2[nH]1)C(C)C (stereo partly shown) [Example 181] has an EC50 [1, 6] of 0.001 to 0.999 nM, an EC50 [2, 7] of 0.001 to 0.99 nM and an EC50 [3] of 0.001 to 0.99 nM. For the same molecule, the EC50 [4] was 0.01 nM and the EC50 ([5]; RLuc reporter) was 0.001 to 0.999 nM.
For COC(=O)N[C@H](C(=O)N1CCC[C@H]1c1nc2ccc3cc(C#Cc4ccc(-c5cnc([C@@H]6CCCN6C(=O)[C@H](NC(=O)OC)c6ccccc6)[nH]5)cc4)ccc3c2[nH]1)C1CCOCC1 [Example 208], the EC50 [1, 6] was 0.001 to 0.999 nM, the EC50 [2, 7] was 0.001 to 0.99 nM and the EC50 [3] was 0.001 to 0.99 nM. The EC50 [4] was 0.009 nM and the EC50 ([5]; RLuc reporter) was 0.001 to 0.999 nM.
For COC(=O)N[C@H](C(=O)N1CCC[C@H]1c1nc2ccc(-c3ccc4c(c3)sc3cc(-c5cnc([C@@H]6CCCN6C(=O)[C@H](NC(=O)OC)c6ccccc6)[nH]5)ccc34)cc2[nH]1)[C@@H](C)OC [Example 251], the EC50 [1, 6] was 0.001 to 0.999 nM, the EC50 [2, 7] was 0.001 to 0.99 nM and the EC50 [3] was 0.001 to 0.99 nM. It also gave an EC50 [4] of 0.01 nM and an EC50 ([5]; RLuc reporter) of 0.001 to 0.999 nM.
COC(=O)N[C@H](C(=O)N1CC(F)(F)C[C@H]1c1ncc(-c2ccc(-c3ccc4cc(-c5cnc([C@@H]6CCCN6C(=O)[C@H](NC(=O)OC)c6ccccc6)[nH]5)ccc4c3)cc2)[nH]1)C1CCOCC1 [Example 224] was tested, and the EC50 [1, 6] was 0.001 to 0.999 nM, the EC50 [2, 7] was 0.001 to 0.99 nM and the EC50 [3] was 0.001 to 0.99 nM. For the same molecule, the EC50 [4] was 0.008 nM and the EC50 ([5]; RLuc reporter) was 0.001 to 0.999 nM.
With COC(=O)N[C@H](C(=O)N1CCC[C@H]1c1ncc(-c2ccc3cc(-c4ccc5c(ccc6nc([C@@H]7[C@H]8CC[C@H](C8)N7C(=O)[C@H](NC(=O)OC)c7ccccc7)[nH]c65)c4)ccc3c2)[nH]1)[C@@H](C)OC [Example 328] the EC50 ([1]; genotype 1a replicon) was 0.001 to 0.999 nM, the EC50 [2, 10] was 1 to 4.99 nM and the EC50 [3] was 0.001 to 0.99 nM. For the same molecule, the EC50 [4] was 0.008 nM and the EC50 [5] was 0.001 to 0.999 nM.
Molecule COC(=O)N[C@H](C(=O)N1CCC[C@H]1c1ncc(-c2ccc3c(c2F)COc2c-3ccc(-c3cnc([C@@H]4CCCN4C(=O)[C@@H](NC(=O)OC)C(C)C)[nH]3)c2F)[nH]1)C(C)C [Example 330] has an EC50 ([1]; genotype 1a replicon) of 0.001 to 0.999 nM, an EC50 [2, 10] of 0.001 to 0.99 nM and an EC50 [3] of 0.001 to 0.99 nM. It also gave an EC50 [4] of 0.006 nM and an EC50 [5] of 0.001 to 0.999 nM.
With COC(=O)N[C@H](C(=O)N1CCC[C@H]1c1ncc(-c2ccc3cc(-c4ccc(-c5cnc([C@@H]6CCCN6C(=O)[C@@H](N)C6CCSCC6)[nH]5)cc4)ccc3c2)[nH]1)C(C)C [Example 277] the EC50 [1, 6] was 1 to 44 nM, the EC50 [2, 7] was over 5 nM and the EC50 [3] was 1 to 4.99 nM. It also gave an EC50 [4] of 1.06 nM and an EC50 ([5]; RLuc reporter) of over 44 nM.
In the case of COC(=O)N[C@H](C(=O)N1CCC[C@H]1c1nc2ccc3cc(-c4ccc5c(c4)CCc4nc([C@@H]6[C@H]7CC[C@H](C7)N6C(=O)[C@@H](NC(=O)OC)C(C)C)[nH]c4-5)ccc3c2[nH]1)C(C)C [Example 290], the EC50 ([1]; genotype 1a replicon) is reported as 0.001 to 0.999 nM, the EC50 [2, 10] is reported as 0.001 to 0.99 nM and the EC50 [3] is reported as 0.001 to 0.99 nM. For the same molecule, the EC50 [4] was 0.017 nM and the EC50 [5] was 0.001 to 0.999 nM.
With CC#Cc1cc(-c2cnc([C@@H]3[C@H]4CC[C@H](C4)N3C(=O)[C@@H](NC(=O)OC)C3CCOCC3)[nH]2)ccc1-c1ccc2c(ccc3nc([C@@H]4CCCN4C(=O)[C@@H](NC(=O)OC)C(C)C)[nH]c32)c1 [Example 322] the EC50 ([1]; genotype 1a replicon) was 0.001 to 0.999 nM, the EC50 [2, 10] was 0.001 to 0.99 nM and the EC50 [3] was 0.001 to 0.99 nM. It also gave an EC50 [4] of 0.021 nM and an EC50 [5] of 0.001 to 0.999 nM.
